Measurements reported in patent publication US10420733B2, “Transdermal delivery system containing methylphenidate or its salts and methods thereof” (TAHO Pharmaceuticals Ltd., priority 2016, dated 2019).

Test: Maximum amount of methylphenidate dissolved in various adhesives
Type: physicochemical
Procedure: Various adhesives were tested to determine the maximum amount of methylphenidate could be dissolved.

COC(=O)C(c1ccccc1)C1CCCCN1 (stereo not shown) [methylphenidate, a-phenyl-2-piperidineacetic acid methyl ester]
solubility in Duro Tak 87-6911: highly soluble
